Like-named read-outs stand apart in the source and are kept apart here.
Columns and labels:
[1] = tested on: Both Gram-positive and -negative bacteria; experiment: Geometric mean MIC, therapeutic index and fold changes of MIC, whole panel of strains; assay type: cell-based; details: for GM G−/+ (geometric mean of the MIC values): Both Gram-positive and -negative bacteria, MIC >50 µg/mL counted as 100 µg/mL; for Therapeutic Index (TI) G−/+: HC10/GM, both Gram-positive and -negative bacteria
Procedure, shortened: (§1)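 Overnight MH cultures were regrown and diluted to 5 × 10^5 CFU/mL, then exposed to peptides at 0.78–50 µg/mL final in MH or modified LYM broth following CLSI microdilution. MICs were combined into geometric means, and TI was computed as HC10 (human red blood cells) divided by GM.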

Gram-negative bacteria = experiment: Geometric mean MIC and therapeutic index, Gram-negative bacteria; assay type: cell-based; details: Gram-negative bacteria; for GM G− (geometric mean of the MIC values): MH broth, MIC >50 µg/mL counted as 100 µg/mL; for Therapeutic Index (TI) G−: HC10/GM
Procedure, shortened: as §1

[2] = tested on: A. baumannii 14B0091 (Acinetobacter sp., BCRC number 14B0091)
Procedure, shortened: (§2)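 MICs came from CLSI broth microdilution, with 5 × 10^5 CFU/mL bacteria exposed to peptide at final 0.78–50 µg/mL. Media were MH broth or LYM broth (pH 7.4), the latter also adjusted for salt (NaCl 50–300 mM, MgCl2 0.5–2.5 mM) or acidity (pH 4.5–6.5); triplicate independent experiments.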

[3] = tested on: A. baumannii 14B0097 (Acinetobacter sp., BCRC number 14B0097)
Procedure, shortened: as §2

S. aureus ATCC 25923 = tested on: S. aureus ATCC 25923
Procedure, shortened: as §2

S. aureus ATCC 6538 = tested on: S. aureus ATCC 6538
Procedure, shortened: as §2

[4] = tested on: Escherichia coli (ATCC 25922)
Procedure, shortened: as §2

[5] = tested on: Pseudomonas aeruginosa Migula (ATCC 27853)
Procedure, shortened: as §2

[6] = LYM broth, 0 mM NaCl, 16 h, 37 °C
[7] = LYM broth, 50 mM NaCl, 16 h, 37 °C
[8] = LYM broth, 100 mM NaCl, 16 h, 37 °C
[9] = LYM broth, 200 mM (NaCl), 16 h, 37 °C
[10] = LYM broth, 300 mM (NaCl), 16 h, 37 °C
[11] = MH broth, 5 × 10^5 CFU/mL, 16 h, 37 °C, repeated three times

## Ac-WLKWLAKKKKWRK-NH2 [Peptide W5K05]
[1]; MH broth
  GM G−/+ (geometric mean of the MIC values): 20.3 µg/mL
[1]
  Therapeutic Index (TI) G−/+: 5.4
Gram-negative bacteria
  GM G− (geometric mean of the MIC values): 12.5 µg/mL
  Therapeutic Index (TI) G−: 8.7
[2]; [6]
  MIC: 1.56 µg/mL
[2]; LYM broth, 0.5 mM MgCl2
  MIC: 1.56 µg/mL
[2]; LYM broth, 1.5 mM MgCl2
  MIC: 1.56 µg/mL
[2]; LYM broth, 2.5 mM MgCl2
  MIC: 1.56 µg/mL
[2]; [7]
  MIC: 1.56 µg/mL
[2]; [8]
  MIC: 3.13 µg/mL
[2]; [9]
  MIC: 6.25 µg/mL
[2]; [10]
  MIC: 25 µg/mL
[2]; LYM broth, pH 4.5
  MIC: 3.13 µg/mL
[2]; LYM broth, pH 5.5
  MIC: 1.56 µg/mL
[2]; LYM broth, pH 6.5
  MIC: 1.56 µg/mL
[2]; [11]
  MIC: 12.5 µg/mL
[3]; [6]
  MIC: 1.56 µg/mL
[3]; LYM broth, 0.5 mM MgCl2
  MIC: 1.56 µg/mL
[3]; LYM broth, 1.5 mM MgCl2
  MIC: 1.56 µg/mL
[3]; LYM broth, 2.5 mM MgCl2
  MIC: 1.56 µg/mL
[3]; [7]
  MIC: 3.13 µg/mL
[3]; [8]
  MIC: 3.13 µg/mL
[3]; [9]
  MIC: 6.25 µg/mL
[3]; [10]
  MIC: 25 µg/mL
[3]; LYM broth, pH 4.5
  MIC: 3.13 µg/mL
[3]; LYM broth, pH 5.5
  MIC: 1.56 µg/mL
[3]; LYM broth, pH 6.5
  MIC: 1.56 µg/mL
[3]; [11]
  MIC: 6.25 µg/mL
S. aureus ATCC 25923; [6]
  MIC: 1.56 µg/mL
S. aureus ATCC 25923; LYM broth, 0.5 mM MgCl2
  MIC: 1.56 µg/mL
S. aureus ATCC 25923; LYM broth, 1.5 mM MgCl2
  MIC: 3.13 µg/mL
S. aureus ATCC 25923; LYM broth, 2.5 mM MgCl2
  MIC: 3.13 µg/mL
S. aureus ATCC 25923; [7]
  MIC: 3.13 µg/mL
S. aureus ATCC 25923; [8]
  MIC: 6.25 µg/mL
S. aureus ATCC 25923; [9]
  MIC: 50 µg/mL
S. aureus ATCC 25923; [10]
  MIC: 50 µg/mL
S. aureus ATCC 25923; LYM broth, pH 4.5
  MIC: 1.56 µg/mL
S. aureus ATCC 25923; LYM broth, pH 5.5
  MIC: 1.56 µg/mL
S. aureus ATCC 25923; LYM broth, pH 6.5
  MIC: 1.56 µg/mL
S. aureus ATCC 25923; [11]
  MIC: 25 µg/mL
S. aureus ATCC 6538; [6]
  MIC: 3.13 µg/mL
S. aureus ATCC 6538; LYM broth, 0.5 mM MgCl2
  MIC: 1.56 µg/mL
S. aureus ATCC 6538; LYM broth, 1.5 mM MgCl2
  MIC: 1.56 µg/mL
S. aureus ATCC 6538; LYM broth, 2.5 mM MgCl2
  MIC: 3.13 µg/mL
S. aureus ATCC 6538; [7]
  MIC: 3.13 µg/mL
S. aureus ATCC 6538; [8]
  MIC: 6.25 µg/mL
S. aureus ATCC 6538; [9]
  MIC: 12.5 µg/mL
S. aureus ATCC 6538; [10]
  MIC: 25 µg/mL
S. aureus ATCC 6538; LYM broth, pH 4.5
  MIC: 3.13 µg/mL
S. aureus ATCC 6538; LYM broth, pH 5.5
  MIC: 1.56 µg/mL
S. aureus ATCC 6538; LYM broth, pH 6.5
  MIC: 1.56 µg/mL
S. aureus ATCC 6538; [11]
  MIC: 12.5 µg/mL
[4]; [6]
  MIC: 1.56 µg/mL
[4]; LYM broth, 0.5 mM MgCl2
  MIC: 3.13 µg/mL
[4]; LYM broth, 1.5 mM MgCl2
  MIC: 6.25 µg/mL
[4]; LYM broth, 2.5 mM MgCl2
  MIC: 6.25 µg/mL
[4]; [7]
  MIC: 3.13 µg/mL
[4]; [8]
  MIC: 12.5 µg/mL
[4]; [9]
  MIC: 50 µg/mL
[4]; [10]
  MIC: >50 µg/mL
[4]; LYM broth, pH 4.5
  MIC: 1.56 µg/mL
[4]; LYM broth, pH 5.5
  MIC: 1.56 µg/mL
[4]; LYM broth, pH 6.5
  MIC: 1.56 µg/mL
[4]; [11]
  MIC: 12.5 µg/mL
[5]; [6]
  MIC: 3.13 µg/mL
[5]; LYM broth, 0.5 mM MgCl2
  MIC: 3.13 µg/mL
[5]; LYM broth, 1.5 mM MgCl2
  MIC: 3.13 µg/mL
[5]; LYM broth, 2.5 mM MgCl2
  MIC: 6.25 µg/mL
[5]; [7]
  MIC: 6.25 µg/mL
[5]; [8]
  MIC: 12.5 µg/mL
[5]; [9]
  MIC: >50 µg/mL
[5]; [10]
  MIC: >50 µg/mL
[5]; LYM broth, pH 4.5
  MIC: 1.56 µg/mL
[5]; LYM broth, pH 5.5
  MIC: 1.56 µg/mL
[5]; LYM broth, pH 6.5
  MIC: 1.56 µg/mL
[5]; [11]
  MIC: 25 µg/mL

## Ac-WRKWLKWLAKKKK-NH2 [Peptide W5K02]
[1]; MH broth
  GM G−/+ (geometric mean of the MIC values): 12.5 µg/mL
[1]
  Therapeutic Index (TI) G−/+: 1.3
[1]; LYM broth, 2.5 mM MgCl2
  weakening of bactericidal efficacy (MIC): 4 fold
[1]; MH broth, in most bacteria strains
  folds higher MIC values than W5KA9W: 2–8 fold
Gram-negative bacteria
  GM G− (geometric mean of the MIC values): 7.2 µg/mL
  Therapeutic Index (TI) G−: 2.3
[2]; [6]
  MIC: 1.56 µg/mL
[2]; LYM broth, 0.5 mM MgCl2
  MIC: 1.56 µg/mL
[2]; LYM broth, 1.5 mM MgCl2
  MIC: 1.56 µg/mL
[2]; LYM broth, 2.5 mM MgCl2
  MIC: 1.56 µg/mL
[2]; [7]
  MIC: 1.56 µg/mL
[2]; [8]
  MIC: 1.56 µg/mL
[2]; [9]
  MIC: 3.13 µg/mL
[2]; [10]
  MIC: 6.25 µg/mL
[2]; LYM broth, pH 4.5
  MIC: 1.56 µg/mL
[2]; LYM broth, pH 5.5
  MIC: 1.56 µg/mL
[2]; LYM broth, pH 6.5
  MIC: 1.56 µg/mL
[2]; [11]
  MIC: 3.13 µg/mL
[3]; [6]
  MIC: 1.56 µg/mL
[3]; LYM broth, 0.5 mM MgCl2
  MIC: 1.56 µg/mL
[3]; LYM broth, 1.5 mM MgCl2
  MIC: 3.13 µg/mL
[3]; LYM broth, 2.5 mM MgCl2
  MIC: 3.13 µg/mL
[3]; [7]
  MIC: 1.56 µg/mL
[3]; [8]
  MIC: 1.56 µg/mL
[3]; [9]
  MIC: 3.13 µg/mL
[3]; [10]
  MIC: 6.25 µg/mL
[3]; LYM broth, pH 4.5
  MIC: 3.13 µg/mL
[3]; LYM broth, pH 5.5
  MIC: 3.13 µg/mL
[3]; LYM broth, pH 6.5
  MIC: 3.13 µg/mL
[3]; [11]
  MIC: 3.13 µg/mL
S. aureus ATCC 25923; [6]
  MIC: 6.25 µg/mL
S. aureus ATCC 25923; LYM broth, 0.5 mM MgCl2
  MIC: 6.25 µg/mL
S. aureus ATCC 25923; LYM broth, 1.5 mM MgCl2
  MIC: 6.25 µg/mL
S. aureus ATCC 25923; LYM broth, 2.5 mM MgCl2
  MIC: 6.25 µg/mL
S. aureus ATCC 25923; [7]
  MIC: 6.25 µg/mL
S. aureus ATCC 25923; [8]
  MIC: 12.5 µg/mL
S. aureus ATCC 25923; [9]
  MIC: 50 µg/mL
S. aureus ATCC 25923; [10]
  MIC: >50 µg/mL
S. aureus ATCC 25923; LYM broth, pH 4.5
  MIC: 3.13 µg/mL
S. aureus ATCC 25923; LYM broth, pH 5.5
  MIC: 3.13 µg/mL
S. aureus ATCC 25923; LYM broth, pH 6.5
  MIC: 3.13 µg/mL
S. aureus ATCC 25923; [11]
  MIC: 25 µg/mL
S. aureus ATCC 6538; [6]
  MIC: 6.25 µg/mL
S. aureus ATCC 6538; LYM broth, 0.5 mM MgCl2
  MIC: 3.13 µg/mL
S. aureus ATCC 6538; LYM broth, 1.5 mM MgCl2
  MIC: 3.13 µg/mL
S. aureus ATCC 6538; LYM broth, 2.5 mM MgCl2
  MIC: 6.25 µg/mL
S. aureus ATCC 6538; [7]
  MIC: 6.25 µg/mL
S. aureus ATCC 6538; [8]
  MIC: 12.5 µg/mL
S. aureus ATCC 6538; [9]
  MIC: 25 µg/mL
S. aureus ATCC 6538; [10]
  MIC: 50 µg/mL
S. aureus ATCC 6538; LYM broth, pH 4.5
  MIC: 6.25 µg/mL
S. aureus ATCC 6538; LYM broth, pH 5.5
  MIC: 3.13 µg/mL
S. aureus ATCC 6538; LYM broth, pH 6.5
  MIC: 3.13 µg/mL
S. aureus ATCC 6538; [11]
  MIC: 12.5 µg/mL
[4]; [6]
  MIC: 6.25 µg/mL
[4]; LYM broth, 0.5 mM MgCl2
  MIC: 6.25 µg/mL
[4]; LYM broth, 1.5 mM MgCl2
  MIC: 12.5 µg/mL
[4]; LYM broth, 2.5 mM MgCl2
  MIC: 12.5 µg/mL
[4]; [7]
  MIC: 12.5 µg/mL
[4]; [8]
  MIC: 25 µg/mL
[4]; [9]
  MIC: >50 µg/mL
[4]; [10]
  MIC: >50 µg/mL
[4]; LYM broth, pH 4.5
  MIC: 3.13 µg/mL
[4]; LYM broth, pH 5.5
  MIC: 3.13 µg/mL
[4]; LYM broth, pH 6.5
  MIC: 3.13 µg/mL
[4]; [11]
  MIC: 12.5 µg/mL
[5]; [6]
  MIC: 6.25 µg/mL
[5]; LYM broth, 0.5 mM MgCl2
  MIC: 6.25 µg/mL
[5]; LYM broth, 1.5 mM MgCl2
  MIC: 6.25 µg/mL
[5]; LYM broth, 2.5 mM MgCl2
  MIC: 6.25 µg/mL
[5]; [7]
  MIC: 6.25 µg/mL
[5]; [8]
  MIC: 25 µg/mL
[5]; [9]
  MIC: >50 µg/mL
[5]; [10]
  MIC: >50 µg/mL
[5]; LYM broth, pH 4.5
  MIC: 3.13 µg/mL
[5]; LYM broth, pH 5.5
  MIC: 3.13 µg/mL
[5]; LYM broth, pH 6.5
  MIC: 3.13 µg/mL
[5]; [11]
  MIC: 25 µg/mL

From PMC12649549, “Sequence Permutation Generated Lysine and Tryptophan-Rich Antimicrobial Peptides with Enhanced Therapeutic Index” (Antibiotics, 2025)
